Laboratory results taken from patent publication US20150315188A1, “COMPOUNDS AND METHODS FOR TREATMENT OF HYPERTENSION” (MEDIVATION TECHNOLOGIES, INC., priority 2012, published 2015).

Key:
[1] = Stability in the presence of human hepatocytes; assay type: in vitro ADME; details: both sexes, human, cryopreserved hepatocytes, pH 7.4, human hepatocytes, 37° C., average of duplicates, ^a = 0-120 minute time points, read-out: T1/2 Human
Experimental: (§1) Compounds of the invention were tested for stability in the presence of dog, rat and human hepatocytes over a 4 hour period by LC/MS/MS. The study was performed by Integrated Analytical Solutions, Berkeley, Calif.
(§2) Reference Standards and Solutions: Compounds of the invention were stored as powders at ambient temperature in a desiccator and protected from light. Reference stock solutions of Compound Nos. 50a, 50b, 79a, 82, 91a and 178d, as 20 mM in DMSO were prepared and subsequently diluted to 2 mM in MeOH to provide working stock solutions (WSS). Unused standard solutions were stored at −20° C.
(§3) Hepatocyte Preparation: Human (mixed gender), Beagle dog (male) and Sprague Dawley rat (male) cryopreserved hepatocytes were purchased from Life Technologies Corporation. Hepatocytes were removed from liquid nitrogen, quickly thawed in a 37° C. water bath and transferred to Hepatocyte Thawing/Plating Medium (Cryopreserved Hepatocyte Recovery Medium, CHRM, Life Technologies Inc.). The cells were pelleted by slow speed centrifugation (˜100×g, 6 min) and resuspended at a high cell density. Hepatocyte viability was determined by trypan blue exclusion. Hepatocyte incubation medium (Life Technologies, Inc.) was added to generate a cell density of 2.0×10^6 cells/mL.
(§4) Hepatocyte Incubations for Stability: The 2 mM WSS was diluted 1 in 200 in hepatocyte incubation medium (pH 7.4) to 10 μM. A solution containing control compounds was prepared similarly to contain 10 μM each of dextromethorphan and testosterone. The solutions of test compounds and controls at 10 μM in hepatocyte incubation medium were pre-incubated at 37° C. for 10 min. Aliquots (250 μL) of hepatocyte suspensions (at 2.0×10^6 cells/mL) were transferred to appropriate 48-well plates and pre-incubated at 37° C. for 10 minutes. Metabolism was initiated by adding 250 μL pre-incubated medium (containing test drug) to wells containing cells. A negative control reaction excluding hepatocytes was used to monitor aqueous stability and/or non-specific adsorption. The final reaction mixtures contained 5 μM of test or control compound and 1.0×10^6 cells/mL. All reactions were performed in duplicate and carried at 37° C. in an incubator. Dextromethorphan and testosterone were used as control drugs to verify hepatocyte activity.
(§5) Aliquots were removed from each metabolism reaction at 0, 0.5, 2 and 4 hours. The reactions were terminated by adding each aliquot to a vessel containing 2× volumes (80 μL) of Internal Standard Solution (acetonitrile containing 50 ng/mL 2-(2,8-dimethyl-3,4-dihydro-1H-pyrido[4,3-b]indol-5(2H)-yl)-1-(pyridin-4-yl)ethanol (ISS1), 50 ng/mL of 2-(2,8-dimethyl-3,4-dihydro-1H-pyrido[4,3-b]indol-5(2H)-yl)-1-(piperidin-1-yl)ethanone (ISS2) and 5 ng/mL diphenhydramine. Terminated reactions were centrifuged at 6000 g for 30 mins at 4° C. to remove the precipitated proteins and cell debris. Following centrifugation, 20 μL of each supernatant was transferred to a deep-well microplate and diluted with 5× volumes (100 μL) of 0.2% formic acid in water. Compound 178d samples were diluted with 5× volumes (100 μL) of 0.1% HFBA in water. Samples were analyzed by LC/MS/MS.
(§6) Calculation of Metabolism Parameters: Percent remaining was measured by dividing the analyte/IS peak area ratio at the designated sample time by the peak area ratio at time 0. ISS1 served as the IS for Compound No. 178d. ISS2 served as the IS for Compound nos. 50a, 50b, 79a, 82 and 91a. The metabolic half-life (T1/2) was calculated using all time points unless otherwise noted. The T1/2 values were calculated as 0.693/k, where k is the slope of the log analyte/internal standard peak area ratio versus time. Metabolism rate was calculated by dividing the starting concentration of substrate by the concentration of hepatocytes, then dividing by the T1/2 value.

[2] = Stability in the presence of dog hepatocytes; assay type: in vitro ADME, Beagle dog; details: male, Beagle, dog, cryopreserved hepatocytes, pH 7.4, dog hepatocytes, 37° C., average of duplicates, ^a = 0-120 minute time points, read-out: T1/2 Dog
Experimental: as §1, §2, §3, §4, §5, §6

[3] = Stability in the presence of rat hepatocytes; assay type: in vitro ADME, Sprague Dawley rat; details: male, Sprague Dawley, rat, cryopreserved hepatocytes, pH 7.4, rat hepatocytes, 37° C., average of duplicates, ^a = 0-120 minute time points, read-out: T1/2 Rat
Experimental: as §1, §2, §3, §4, §5, §6

[4] = molecular target: T1, Human adrenergic α2B receptor (Homo sapiens, UniProt P18089); experiment: Radioligand binding, adrenergic α2B (Protocol Group A); design: expressed in transfected cells; host or cells: CHO-K1; details: 0.03 μM compound, [3H]Rauwolscine, read-out: percent inhibition of specific binding, Adrenergic α2B
T1 sequence (P18089 1-450): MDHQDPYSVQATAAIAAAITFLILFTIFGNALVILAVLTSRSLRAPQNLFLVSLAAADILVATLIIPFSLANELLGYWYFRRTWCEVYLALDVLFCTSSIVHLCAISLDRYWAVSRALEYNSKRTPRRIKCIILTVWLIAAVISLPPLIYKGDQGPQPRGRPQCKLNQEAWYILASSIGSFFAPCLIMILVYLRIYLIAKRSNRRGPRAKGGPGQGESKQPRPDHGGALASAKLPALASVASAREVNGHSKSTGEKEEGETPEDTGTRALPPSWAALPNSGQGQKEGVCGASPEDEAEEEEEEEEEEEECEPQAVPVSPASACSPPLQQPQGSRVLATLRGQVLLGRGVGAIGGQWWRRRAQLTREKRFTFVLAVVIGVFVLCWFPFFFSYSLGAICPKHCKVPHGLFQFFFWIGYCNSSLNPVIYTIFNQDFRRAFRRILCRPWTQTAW
Experimental: To evaluate in radioligand binding assays the activity of compounds of the invention, human recombinant adrenergic α2B receptor expressed in Chinese hamster ovary (CHO) K1 cells (Uhlen, S. et al, Eur. J. Pharmacol. 343(1):93, 1998) in a modified Tris-HCl buffer (50 mM Tris-HCl, pH 7.4, 12.5 mM MgCl2, 1 mM EDTA, 0.2% BSA) was used. Compounds of the invention were incubated with 2.5 nM [3H]Rauwolscine for 60 min at 25° C. Non-specific binding was estimated in the presence of 10 μM Prazosin. Receptor proteins were filtered and washed, the filters were then counted to determine [3H]Rauwolscine specifically bound. Compounds were screened at 1 μM or lower, using 1% DMSO as vehicle. Compounds of the invention were tested in this biochemical assay and percent inhibition of specific binding was determined. Biochemical assay results are presented as the percent inhibition of specific binding in Table B1a.

Row | half-life at 5 µM [1] [h] | half-life at 5 µM [2] [h] | half-life at 5 µM [3] [h] | inhibition at 0.03 µM [4] [%] | SMILES
1 |  |  |  | 107 | Cc1ccc2c(c1)c1c(n2CC(C)(O)c2ccc(F)nc2)CCN2CCCC12 (single isomer, unassigned) [6a]
2 | 1.92 | 2.03 | 2.43 |  | Cc1cc2c3c(n(CC(C)(O)c4ccncc4)c2cc1Cl)CCN1CCCC31 (single isomer, unassigned) [50a]
3 | 2.23 | 4 | > 4 |  | Cc1ccc2c(c1)c1c(n2CC(O)c2ccncc2)CCN2CCCC12 (single isomer, unassigned) [Compound No. 178d]
4 | > 4 | 3.02 | 3.5 |  | Cc1cc(F)c2c(c1)c1c(n2CC(C)(O)c2cccnc2)CCN2CCCC12 (centres unmarked) [Compound No. 79a]
5 | 2.3 | 1.37 | 2.82 |  | Cc1cc(Cl)c2c(c1)c1c(n2CC(C)(O)c2ccncc2)CCN2CCCC12 (single isomer, unassigned) [91a]
6 |  |  |  | 86 | Cc1ccc2c(c1)c1c(n2CC(OC(=O)N2CCCC2)c2ccncc2)CCN(C)C1 (single isomer, unassigned) [4b]

Row | SMILES | half-life at 5 µM [1] [h] | half-life at 5 µM [2] [h] | half-life at 5 µM [3] [h] | inhibition at 0.03 µM [4] [%]
7 | Cc1ccc2c(c1)c1c(n2C[C@@H](OC2CCCC2)c2ccncc2)CCN2CCC[C@H]12 [compound 82, (11cR)-7-[(25)-2-(cyclopentoxy)-2-(4-pyridyl)ethyl]-10-methyl-1,2,3,5,6,11c-hexahydroindolizino[7,8-b]indole] | 0.817 | 0.8 | 0.767 | 
